Laboratory results as given in patent US20170008888A1 (KYORIN PHARMACEUTICAL CO., LTD., priority 2014, published 2017).

Tests used:
MV-4-11 cells [1] = assay: Combination study with Ara-C in MV-4-11 cells (CellTiter-Glo); format: cell-based, human; conditions: 48 h
Procedure: Human biphenotypic B myelomonocytic leukemia MV-4-11 cells (ATCC, Manassas, Va.) treated with test compounds at 2e5 cells/ml in IMDM medium containing 10% (v/v) FBS (Life Technologies, Grand Island, N.Y.) and 1×Pen/Strep Amphotericin B (Lonza, Allendale, N.J.). The final concentration of a test compound was set at a concentration previously determined to be its EC50 and Y3 EC50 values, while the combination test drug (Arabinofuranosyl Cytidine (Ara-C))(Sigma, St. Louis, Mo.) was assayed in serially-diluted 9-point concentrations against this background. Cells were treated for 48 h at 37° C. in a humidified atmosphere at 5% CO2. Cell viability was then determined indirectly via ATP content using the CellTiter-Glo® luminescent cell viability assay (Promega, Madison, Wis.) as per the manufacturer's instructions as follows: Briefly, experimental plates were equilibrated at room temperature for 30 minutes. An equal volume of CellTiter-Glo reagent was added to each well and incubated for 15 minutes at room temperature. Luminescent signal was read using the Wallac 1420 Victor2 multilabel microplate reader (Perkin Elmer, Waltham, Mass.).

ERK5 = target: T1, ERK5 (Homo sapiens, UniProt Q13164); assay: Probe-based (AX9989 acyl phosphate ATP probe) kinase profiling in Jurkat lysate: ERK5; format: binding
T1 construct: screened for activity against several kinases in Jurkat cells; endogenous in cells; host or cells: Jurkat cell lysate
In short: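 ERK5 IC50 values came from percent inhibition at the screening concentration, measured as loss of LC/MS signal of probe-labelled active-site peptides. Compound was added for 15 min at room temperature to Jurkat lysate (5 mg/ml, 20 mM MnCl2) before labelling with AX9989 ATP acyl phosphate probe at 5 μM.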

AurA = target: T2, AurA (Homo sapiens, UniProt O14965); assay: Probe-based (AX9989) kinase profiling in Jurkat lysate: AurA; format: binding; conditions: screening concentration 10.0 μM; read-out: Kinase inhibition % at indicated screening concentration: AurA
T2 construct: screened for activity against several kinases in Jurkat cells; endogenous in cells; host or cells: Jurkat cell lysate
T2 sequence (O14965 1-403): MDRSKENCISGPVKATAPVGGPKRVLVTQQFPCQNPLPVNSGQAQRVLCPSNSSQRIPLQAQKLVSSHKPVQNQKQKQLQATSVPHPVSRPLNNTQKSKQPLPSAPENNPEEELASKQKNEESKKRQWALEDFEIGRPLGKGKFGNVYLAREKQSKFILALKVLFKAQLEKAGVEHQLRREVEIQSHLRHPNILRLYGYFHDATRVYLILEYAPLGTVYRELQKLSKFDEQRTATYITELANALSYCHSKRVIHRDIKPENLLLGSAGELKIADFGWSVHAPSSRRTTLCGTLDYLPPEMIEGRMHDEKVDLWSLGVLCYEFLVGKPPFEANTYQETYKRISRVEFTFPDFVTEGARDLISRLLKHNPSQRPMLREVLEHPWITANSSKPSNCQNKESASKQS
In short: (§1)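 Percent inhibition was derived from reduced LC/MS fragment intensities of probe-labeled peptides relative to compound-free controls. Before labeling with 5 μM AX9989, Mn2+-supplemented (20 mM) Jurkat lysate was exposed to compound for 15 min at room temperature.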

AurB or AurC = assay: Probe-based (AX9989) kinase profiling in Jurkat lysate: AurB or AurC; format: binding; conditions: screening concentration 10.0 μM
In short: as §1

JAK1 = target: T3, JAK1 (Homo sapiens, UniProt P23458); assay: Probe-based (AX9989) kinase profiling in Jurkat lysate: JAK1; format: binding; conditions: screening concentration 10.0 μM; read-out: Kinase inhibition % at indicated screening concentration: JAK1
T3 construct: screened for activity against several kinases in Jurkat cells; endogenous in cells; host or cells: Jurkat cell lysate
In short: as §1

AMPKa1 or AMPKa2 = assay: Probe-based (AX9989) kinase profiling in Jurkat lysate: AMPKa1 or AMPKa2; format: binding; conditions: screening concentration 10.0 μM
In short: as §1

TAO2 = target: T4, TAO2 (Homo sapiens, UniProt Q9UL54); assay: Probe-based (AX9989) kinase profiling in Jurkat lysate: TAO2; format: binding; conditions: screening concentration 10.0 μM; read-out: Kinase inhibition % at indicated screening concentration: TAO2
T4 construct: screened for activity against several kinases in Jurkat cells; endogenous in cells; host or cells: Jurkat cell lysate
T4 sequence (Q9UL54 1-1235): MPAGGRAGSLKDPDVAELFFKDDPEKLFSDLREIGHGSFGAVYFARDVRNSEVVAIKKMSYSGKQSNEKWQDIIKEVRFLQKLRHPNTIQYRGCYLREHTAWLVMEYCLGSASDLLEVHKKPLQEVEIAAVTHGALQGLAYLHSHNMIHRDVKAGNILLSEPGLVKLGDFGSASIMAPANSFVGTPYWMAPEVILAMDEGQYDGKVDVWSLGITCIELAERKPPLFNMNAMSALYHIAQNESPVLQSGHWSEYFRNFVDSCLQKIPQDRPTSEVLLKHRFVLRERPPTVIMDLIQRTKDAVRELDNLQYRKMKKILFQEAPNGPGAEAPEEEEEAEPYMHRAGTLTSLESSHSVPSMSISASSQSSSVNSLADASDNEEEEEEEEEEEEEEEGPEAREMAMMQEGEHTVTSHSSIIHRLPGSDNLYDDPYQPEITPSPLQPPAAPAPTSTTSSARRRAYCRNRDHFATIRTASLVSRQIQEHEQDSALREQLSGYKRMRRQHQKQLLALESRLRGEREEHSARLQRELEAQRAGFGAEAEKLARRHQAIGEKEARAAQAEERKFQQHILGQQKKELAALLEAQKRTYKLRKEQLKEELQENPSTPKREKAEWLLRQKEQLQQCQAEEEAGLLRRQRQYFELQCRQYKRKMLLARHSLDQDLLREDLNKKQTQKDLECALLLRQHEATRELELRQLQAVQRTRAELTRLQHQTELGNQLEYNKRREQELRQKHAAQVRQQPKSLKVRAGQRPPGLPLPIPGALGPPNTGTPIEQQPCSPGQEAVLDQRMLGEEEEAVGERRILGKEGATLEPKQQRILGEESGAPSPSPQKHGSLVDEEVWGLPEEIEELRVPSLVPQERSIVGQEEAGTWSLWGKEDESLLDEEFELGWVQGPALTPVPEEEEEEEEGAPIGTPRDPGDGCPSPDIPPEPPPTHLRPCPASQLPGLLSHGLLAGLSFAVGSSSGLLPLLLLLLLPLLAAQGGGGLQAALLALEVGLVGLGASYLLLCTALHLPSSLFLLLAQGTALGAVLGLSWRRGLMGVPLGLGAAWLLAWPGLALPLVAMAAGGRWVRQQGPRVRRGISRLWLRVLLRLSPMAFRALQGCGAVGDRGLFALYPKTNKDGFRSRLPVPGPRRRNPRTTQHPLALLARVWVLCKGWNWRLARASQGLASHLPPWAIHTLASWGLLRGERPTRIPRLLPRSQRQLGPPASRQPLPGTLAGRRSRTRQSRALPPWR
In short: as §1

ACK = target: T5, ACK (Homo sapiens, UniProt Q07912); assay: Probe-based (AX9989) kinase profiling in Jurkat lysate: ACK; format: binding; conditions: screening concentration 10.0 μM; read-out: Kinase inhibition % at indicated screening concentration: ACK
T5 construct: screened for activity against several kinases in Jurkat cells; endogenous in cells; host or cells: Jurkat cell lysate
In short: as §1

ABL or ARG = assay: Probe-based (AX9989) kinase profiling in Jurkat lysate: ABL or ARG; format: binding; conditions: screening concentration 10.0 μM
In short: as §1

MV-4-11 cells [2] = assay: MV-4-11 proliferation EC50 assay (CellTiter-Glo); format: cell-based; conditions: Homo sapiens, MV4-11, 48 h, read-out: MV-4-11 proliferation EC50, ave. ± S.D.
Procedure: Human biphenotypic B myelomonocytic leukemia MV-4-11 cells (ATCC, Manassas, Va.) were treated with test compounds at 2e5 cells/ml in IMDM medium containing 10% (v/v) FBS (Life Technologies, Grand Island, N.Y.) and 1×Pen/Strep Amphotericin B (Lonza, Allendale, N.J.). Compounds were tested at 25 μM down by ⅓ in a 9 point serial dilution series. Cells were incubated for 48 h at 37° C. in a humidified atmosphere at 5% CO2. MV-4-11 cell proliferation was then indirectly determined via cellular ATP content using the CellTiter-Glo® Luminescent Cell Viability Assay (Promega, Madison, Wis.) as per the manufacturer's instructions. Briefly, experimental plates were equilibrated at room temperature for 30 minutes. An equal volume of CellTiter-Glo® reagent was added to each well and incubated for 15 minutes at room temperature. Luminescent signal was read using the Wallac 1420 Victor^2 multilabel microplate reader (Perkin Elmer, Waltham, Mass.). EC50 values were determined using GraphPad Prism software v5.04.

T1 sequence (Q13164 whole entry): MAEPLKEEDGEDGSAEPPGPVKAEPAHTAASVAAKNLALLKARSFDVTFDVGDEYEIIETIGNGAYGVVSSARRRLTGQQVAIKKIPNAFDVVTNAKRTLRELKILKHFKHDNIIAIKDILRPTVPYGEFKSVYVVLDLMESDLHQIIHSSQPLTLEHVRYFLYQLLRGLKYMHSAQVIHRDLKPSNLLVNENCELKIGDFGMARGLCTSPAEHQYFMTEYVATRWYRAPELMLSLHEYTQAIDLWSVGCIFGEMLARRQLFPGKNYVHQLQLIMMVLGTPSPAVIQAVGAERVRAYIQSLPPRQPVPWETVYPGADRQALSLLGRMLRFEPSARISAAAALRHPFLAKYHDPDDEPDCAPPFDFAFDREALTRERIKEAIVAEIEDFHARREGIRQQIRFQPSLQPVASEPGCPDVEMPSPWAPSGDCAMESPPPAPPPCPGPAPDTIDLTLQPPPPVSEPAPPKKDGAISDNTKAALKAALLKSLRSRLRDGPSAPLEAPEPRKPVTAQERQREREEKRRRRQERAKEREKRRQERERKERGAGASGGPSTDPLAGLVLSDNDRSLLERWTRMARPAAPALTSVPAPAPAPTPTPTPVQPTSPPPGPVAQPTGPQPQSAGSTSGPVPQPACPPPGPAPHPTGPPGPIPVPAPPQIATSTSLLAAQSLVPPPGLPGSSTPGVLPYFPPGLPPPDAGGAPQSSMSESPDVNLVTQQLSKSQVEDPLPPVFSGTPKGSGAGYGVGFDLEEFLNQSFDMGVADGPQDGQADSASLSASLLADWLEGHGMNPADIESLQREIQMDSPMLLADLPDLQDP
T5 sequence (Q07912 whole entry): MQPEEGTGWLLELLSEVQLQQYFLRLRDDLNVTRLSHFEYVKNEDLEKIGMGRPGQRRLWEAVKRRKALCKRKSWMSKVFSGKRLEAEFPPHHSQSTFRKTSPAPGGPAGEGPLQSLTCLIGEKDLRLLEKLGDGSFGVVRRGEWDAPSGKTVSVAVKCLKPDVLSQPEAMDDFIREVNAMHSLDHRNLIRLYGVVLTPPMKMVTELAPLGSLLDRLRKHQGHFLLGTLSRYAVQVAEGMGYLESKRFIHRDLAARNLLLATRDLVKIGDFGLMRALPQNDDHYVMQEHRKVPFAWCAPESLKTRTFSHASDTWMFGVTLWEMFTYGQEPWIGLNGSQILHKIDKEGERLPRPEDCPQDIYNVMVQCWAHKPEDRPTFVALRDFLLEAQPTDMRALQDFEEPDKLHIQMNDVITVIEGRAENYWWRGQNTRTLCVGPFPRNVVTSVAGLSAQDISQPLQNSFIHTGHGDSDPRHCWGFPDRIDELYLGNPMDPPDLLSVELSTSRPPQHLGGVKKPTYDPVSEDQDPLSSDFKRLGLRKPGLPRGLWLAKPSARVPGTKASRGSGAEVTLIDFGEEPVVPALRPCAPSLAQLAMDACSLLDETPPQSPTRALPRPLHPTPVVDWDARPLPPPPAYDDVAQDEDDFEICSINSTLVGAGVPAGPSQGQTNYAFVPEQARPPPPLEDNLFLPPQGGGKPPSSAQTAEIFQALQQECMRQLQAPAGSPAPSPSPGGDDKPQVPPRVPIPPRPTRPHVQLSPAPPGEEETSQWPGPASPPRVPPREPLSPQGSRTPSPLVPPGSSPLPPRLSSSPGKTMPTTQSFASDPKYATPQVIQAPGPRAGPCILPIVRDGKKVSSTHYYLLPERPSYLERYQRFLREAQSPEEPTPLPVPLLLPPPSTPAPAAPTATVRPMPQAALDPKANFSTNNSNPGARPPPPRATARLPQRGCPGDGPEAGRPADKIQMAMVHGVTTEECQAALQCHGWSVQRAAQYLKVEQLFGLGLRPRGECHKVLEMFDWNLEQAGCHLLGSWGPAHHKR
T3 sequence (P23458 whole entry): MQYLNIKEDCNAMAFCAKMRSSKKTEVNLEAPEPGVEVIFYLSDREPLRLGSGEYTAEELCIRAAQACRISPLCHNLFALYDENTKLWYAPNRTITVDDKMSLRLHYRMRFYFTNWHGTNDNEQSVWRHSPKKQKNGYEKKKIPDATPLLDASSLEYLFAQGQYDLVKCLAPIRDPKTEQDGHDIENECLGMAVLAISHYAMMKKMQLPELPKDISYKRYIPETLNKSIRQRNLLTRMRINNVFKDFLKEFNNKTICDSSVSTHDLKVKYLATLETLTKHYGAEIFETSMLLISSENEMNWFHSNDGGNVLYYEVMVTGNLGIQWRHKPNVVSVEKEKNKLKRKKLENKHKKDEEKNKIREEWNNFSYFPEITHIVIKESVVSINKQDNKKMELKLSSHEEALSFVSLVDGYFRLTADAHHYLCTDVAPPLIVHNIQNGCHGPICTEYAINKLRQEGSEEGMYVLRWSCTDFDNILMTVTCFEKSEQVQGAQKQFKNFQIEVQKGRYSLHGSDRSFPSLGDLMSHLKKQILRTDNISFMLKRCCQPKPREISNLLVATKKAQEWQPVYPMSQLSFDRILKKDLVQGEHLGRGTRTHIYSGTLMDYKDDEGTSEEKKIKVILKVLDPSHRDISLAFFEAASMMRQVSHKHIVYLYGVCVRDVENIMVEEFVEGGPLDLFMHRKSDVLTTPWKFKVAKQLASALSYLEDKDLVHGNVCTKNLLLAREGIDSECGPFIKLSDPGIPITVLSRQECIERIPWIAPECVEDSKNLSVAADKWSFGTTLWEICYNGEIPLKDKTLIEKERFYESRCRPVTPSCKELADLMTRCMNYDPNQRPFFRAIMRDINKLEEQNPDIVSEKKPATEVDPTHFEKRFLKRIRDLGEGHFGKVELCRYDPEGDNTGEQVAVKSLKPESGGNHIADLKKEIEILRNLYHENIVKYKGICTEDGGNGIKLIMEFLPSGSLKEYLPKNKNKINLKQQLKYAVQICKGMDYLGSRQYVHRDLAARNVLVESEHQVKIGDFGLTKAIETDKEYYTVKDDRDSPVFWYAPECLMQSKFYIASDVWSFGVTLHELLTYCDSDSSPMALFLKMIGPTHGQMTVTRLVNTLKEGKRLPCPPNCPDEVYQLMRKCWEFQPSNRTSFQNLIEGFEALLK

EC50 (MV-4-11 cells [1]; read-out: EC50 (μM) of Ara-C in combination with a fixed concentration of compound 61 at EC50) | EC50 (MV-4-11 cells [1]; read-out: EC50 (μM) of Ara-C in combination with a fixed concentration of compound 61 at ⅓ EC50) | EC50 (MV-4-11 cells [1]; read-out: EC50 (μM) of Ara-C, compound 61 not present) | IC50 (ERK5; calculated from percent inhibition of AX9989 labeling and the screening concentration, Jurkat lysate) | inhibition at 10 µM (ERK5; screening concentration 10.0 μM, read-out: Kinase inhibition % at indicated screening concentration: ERK5) | inhibition at 10 µM (AurA) | Kinase inhibition % at indicated screening concentration: AurB or AurC (AurB or AurC) | inhibition at 10 µM (JAK1) | Kinase inhibition % at indicated screening concentration: AMPKa1 or AMPKa2 (AMPKa1 or AMPKa2) | inhibition at 10 µM (TAO2) | inhibition at 10 µM (ACK) | Kinase inhibition % at indicated screening concentration: ABL or ARG (ABL or ARG) | EC50 (MV-4-11 cells [2]) | Structure (SMILES)
0.108 µM | 0.265 µM | 0.353 µM | – | – | – | – | – | – | – | – | – | – | Nc1ccn([C@@H]2O[C@H](CO)[C@@H](O)[C@@H]2O)c(=O)n1 [Ara-C]
– | – | – | > 500 nM | 75 to 90% | > 90% | A (A>90%) | 50 to 75% | C (C is >50% to ≦75%) | 50 to 75% | 75 to 90% | C (C is >50% to ≦75%) | 60 nM | CN1C(=O)c2ccccc2N(C)c2cc(Nc3ccc(N4CCC(O)CC4)cn3)ncc21 [Compound 4]
